Assays:
[1] = tested on: human acute myelogenous leukemia cell line HL-60; assay: Ability to induce differentiation of HL-60 cells (oxygen radical production after phorbol ester, WST-1); type: cell-based; details: 72 hours incubation, then WST-1 and phorbol 12,13-didecanoate for 4 hours, absorbance at 450 nm
Text: It is known that the human acute myelogenous leukemia cell line HL-60is differentiated into neutrophil-like cells by active vitamin D or the like. Thus, the cells after the differentiation begin to express a surface marker such as CD11and CD32and, at the same time, they produce an oxygen radical by stimulation with a phorbol ester or the like. In this test, the above-mentioned property was utilized. As an index of the ability to induce differentiation of the HL-60cells, the amount of the oxygen radical produced by stimulation with a phorbol ester was measured, and the compounds of the invention mentioned in Examples were compared with maxacalcitol with respect to the vitamin D3activity thereof. In use of commercial reagents and kits, if any, the indications attached thereto were referred to.
HL-60cells (supplied from ATCC) were seeded on a 96-well plate at 5×10^3cells/100μL/well and a test compound in two-fold dilution series from 10^−7M was added to the second to the twelfth rows (maximum concentration: the second row). The first row was used for blank. After incubation for 72 hours under a moisturized condition in the presence of 5% CO2 at 37° C. using a CO2 incubator, 10 μL of PBS containing 50 mM WST-1 (manufactured by Takara Bio) and 10 μM phorbol 12,13-didecanoate (manufactured by SIGMA) were added to each well followed by further incubation for 4 hours. Absorbance (reference wavelength: […]) at […] of the WST-1 formazane dye generated by conversion from WST-1 by oxygen radical produced from the differentiated HL-60 cells was measured by a Benchmark microplate reader (manufactured by BioRad). An absorbance meter control software MPM3 (manufactured by BioRad) was used and, from a concentration-absorbance curve, the 50%-maximal effective concentration (hereinafter, referred to as “EC50”) of each was determined by a logistic curve regression.

[2] = Metabolic rate in human liver microsome; type: in vitro ADME; details: pooled human liver microsome 1 mg/mL protein, NADPH-regenerating system, 37° C., 2-60 minutes, HPLC
Procedure: The compounds of the invention mentioned in Examples and maxacalcitol were compared with each other with respect to the metabolic rate in human liver microsome.
As to the pooled human liver microsome (HHM-0323), those manufactured by Tissue Transformation Technologies were used. A 0.25 M potassium phosphate buffer (pH 7.4) (200 μL), 5 μL of a 250 μM solution of each compound to be tested in DMSO, 50 μL of an NADPH-regenerating system (where 20 mg of β-NADP^+, 70 mg of glucose-6-phosphate, 40 units of glucose-6-phosphate dehydrogenase and 20 mg of magnesium chloride were dissolved in 1 mL of distilled water) and 220 μL of distilled water were added to a microtube and the mixture was subjected to a preincubation for 5 minutes at 37° C. Reaction was started by an addition of 25 μL of human liver microsome (final concentration of protein: 1 mg/mL). Incubation was performed for 2, 10, 30 or 60 minutes and the reaction was stopped by an addition of 500 μL of acetonitrile. After centrifugation at 13,000 rpm for 5 minutes, each test compound in the supernatant (25 μL) was measured by HPLC under the following conditions.
Inertsil ODS-3 (4.6×150 mm; GL Science) was used as a column. With regard to the mobile phase, a solution A (acetonitrile/0.1% aqueous solution of ammonium acetate=10/90) and a solution B (acetonitrile/0.1% aqueous solution of ammonium acetate=90/10) were used under the linear gradient conditions mentioned in Tables 5 to 7. The column temperature, the flow rate and the wavelength for detection were set at 40° C., 1.0 mL/min. and UV 250 or 270 nm, respectively.
The compound mentioned in Example 38 was analyzed under the condition shown in Table 6; the compounds mentioned in Examples 55, 56, 68, 69, 72 and 73 were under the condition shown in Table 7; and the other compounds were under the condition shown in Table 5.
The compounds described in Examples 40, 43 to 48, 50, 55, 56, 58, 60, 61, 63 and 65 to 73 were analyzed under the condition of UV 250 nm; and the other compounds were under the condition of UV 270 nm.
From the HPLC test results as above, the metabolic rate of the test compound was calculated.

[3] = Action to increase the urinary excretion of calcium (1), percutaneous administration; type: in vivo, SD male rats; details: percutaneous 10 μg/200 μL/kg/day once a day for 4 days; for Calcium in Urine within 24 hours: accumulated excretion 0 to 24 hours; for Calcium in Urine within 48 hours: accumulated excretion 0 to 48 hours; for Calcium in Urine within 72 hours: accumulated excretion 0 to 72 hours; for Calcium in Urine within 96 hours: accumulated excretion 0 to 96 hours
Procedure: The compound of the invention mentioned in Example 1, 36, 43, 47, 48, 55 or 70 or maxacalcitol in ethanol containing 0.5% DMSO was repeatedly subjected to a percutaneous administration (10 μg/200 μL/kg/day) once a day for 4 days onto the back of SD male rats (7 weeks of age). Ethanol containing 0.5% DMSO was administered to a control group. The calcium concentration in urine collected every 24 hours was measured and multiplied by the amount of urine to calculate the urinary excretion of calcium. The calcium excretion in urine shown in Table 3 indicates the accumulated calcium excretion from 0 to 24 hours, from 0 to 48 hours, from 0 to 72 hours, and from 0 to 96 hours.

Question: What does the source list for `C=C1[C@H](O)CC(=C/C=C2\CCC[C@]3(C)C([C@H](C)OC(=O)CCC(C)(C)O)=CC[C@@H]23)C[C@H]1O` [Compound of Example 48, (1R,3R,20S)-19-nor-2-methylene-20-(4-hydroxy-4-methylpentanoyloxy)-9,10-secopregna-5Z,7E,16-triene-1,3-diol]?
Answer: EC50 [1]: 0.21 nM; Metabolic Rate [2]: 69 pmol/min/mg; Calcium in Urine within 24 hours [3]: 1.1 mg; Calcium in Urine within 48 hours [3]: 1.9 mg; Calcium in Urine within 72 hours [3]: 3.5 mg; Calcium in Urine within 96 hours [3]: 5.2 mg

Question: What does the source list for `C=C1[C@H](O)CC(=C/C=C2\CCC[C@]3(C)C([C@H](C)OC(=O)CC[C@](C)(O)C(F)(F)F)=CC[C@@H]23)C[C@H]1O` [Compound of Example 55, (1R,3R,20S)-19-nor-2-methylene-20-[(4S)-5,5,5-trifluoro-4-hydroxy-4-methylpentanoyloxy]-9,10-secopregna-5Z,7E,16-triene-1,3-diol]?
Answer: EC50 [1]: 0.15 nM; Metabolic Rate [2]: 128 pmol/min/mg; Calcium in Urine within 24 hours [3]: 1.1 mg; Calcium in Urine within 48 hours [3]: 2.0 mg; Calcium in Urine within 72 hours [3]: 3.4 mg; Calcium in Urine within 96 hours [3]: 4.8 mg

Question: Which EC50 [1] does the source give for `CCC(O)(CC)CCC(=O)OC(C)C1CCC2C(=CC=C3CC(O)C(C)C(O)C3)CCCC21C` [Compound of Example 67, (1R,2α,3R,20S) -2-methyl-19-nor-20-[4-ethyl-4-hydroxyhexanoyloxy]-9,10-secopregna-5Z,7E-diene-1,3-diol] here?
Answer: 0.15 nM

Question: And the “Metabolic Rate” value [2]?
Answer: 38 pmol/min/mg

Question: Which results are given for `CC(OC(=O)CCC(C)(O)C(F)(F)F)C1CCC2C(=CC=C3CC(O)C(C)C(O)C3)CCCC21C` [Compound of Example 60, (1R,2α,3R,20S)-2-methyl-19-nor-20-(5,5,5-trifluoro-4-hydroxy-4-methylpentanoyloxy)-9,10-secopregna-5Z,7E-diene-1,3-diol]?
Answer: EC50 [1]: 0.053 nM; Metabolic Rate [2]: 78 pmol/min/mg

Question: For `C=C1C(=CC=C2CCCC3(C)C2CCC3C(C)OC(=O)C=CC(O)(CC)CC)CC(O)CC1O` [Compound of Example 10, (1S,3R,20S)-20-[(2E)-4-ethyl-4-hydroxyhex-2-enoyloxy]-9,10-secopregna-5Z,7E,10(19)-triene-1,3-diol], which EC50 [1] is on record?
Answer: 0.99 nM

Question: What about the “Metabolic Rate” value [2] of the same compound?
Answer: 58 pmol/min/mg

Question: What does the source list for `CC1[C@H](O)CC(=C/C=C2\CCC[C@]3(C)[C@@H]([C@H](C)OC(=O)CCCC(C)(C)O)CC[C@@H]23)C[C@H]1O` (stereo partly drawn) [Compound of Example 58, (1R,2α,3R,20S)-2-methyl-19-nor-20-(5-hydroxy-5-methylhexanoyloxy)-9,10-secopregna-5Z,7E-diene-1,3-diol]?
Answer: EC50 [1]: 0.53 nM; Metabolic Rate [2]: 29 pmol/min/mg

Question: For `CC(OC(=O)CCC(C)(O)C(F)(F)F)C1CCC2C(=CC=C3CC(O)CC(O)C3)CCCC21C` [Compound of Example 73, (1R,3R,20S)-19-nor-20-[(4R)-5,5,5-trifluoro-4-hydroxy-4-methylpentanoyloxy]-9,10-secopregna-5Z,7E-diene-1,3-diol], which EC50 [1] is on record?
Answer: 1.3 nM

Question: And the “Metabolic Rate” value [2]?
Answer: 63 pmol/min/mg

Question: Which results are given for `CC(OC(=O)CCC(C)(O)C(F)(F)F)C1CCC2C(=CC=C3CC(O)CC(O)C3)CCCC21C` [Compound of Example 72, (1R,3R,20S)-19-nor-20-[(4S)-5,5,5-trifluoro-4-hydroxy-4-methylpentanoyloxy]-9,10-secopregna-5Z,7E-diene-1,3-diol]?
Answer: EC50 [1]: 0.17 nM; Metabolic Rate [2]: 111 pmol/min/mg

Question: With `C=C1C(=CC=C2CCCC3(C)C2CCC3C(C)OC(=O)CCC(C)(O)C(F)(F)F)CC(O)CC1O` (single isomer, unassigned) [Compound of Example 35, (1S,3R,20S)-20-[(4R) or (4S)-5,5,5-trifluoro-4-hydroxy-4-methylpentanoyloxy]-9,10-secopregna-5Z,7E,10(19)-triene-1,3-diol] as the compound, how does the EC50 [1] read?
Answer: 0.82 nM

Question: And the “Metabolic Rate” value [2]?
Answer: 43 pmol/min/mg

Question: With `C[C@H](OC(=O)CC[C@@](C)(O)C(F)(F)F)C1=CC[C@H]2/C(=C/C=C3C[C@@H](O)C[C@H](O)C3)CCC[C@]12C` [Compound of Example 69, (1R,3R,20S)-19-nor-20-[(4R)-5,5,5-trifluoro-4-hydroxy-4-methylpentanoyloxy]-9,10-secopregna-5Z,7E,16-triene-1,3-diol] as the compound, how does the EC50 [1] read?
Answer: 0.77 nM

Question: And the “Metabolic Rate” value [2]?
Answer: 86 pmol/min/mg

Question: With `C=C1C(=CC=C2CCCC3(C)C(C(C)OC(=O)CCC(C)(O)C(F)(F)F)=CCC23)CC(O)CC1O` (single isomer, unassigned) [Compound of Example 71, (1S,3R,20S)-20-[(4S) or (4R)-5,5,5-trifluoro-4-hydroxy-4-methylpentanoyloxy]-9,10-secopregna-5Z,7E,10(19),16-tetraene-1,3-diol] as the compound, how does the EC50 [1] read?
Answer: 1.1 nM

Question: What about the “Metabolic Rate” value [2] of the same compound?
Answer: 40 pmol/min/mg

Question: For `C=C1C(O)CC(=CC=C2CCCC3(C)C2CCC3C(C)OC(=O)CCC(C)(C)O)CC1O` [Compound of Example 41, (1R,3R,20S)-2-methylene-19-nor-20-(4-hydroxy-4-methylpentanoyloxy)-9,10-secopregna-5Z,7E-diene-1,3-diol], which EC50 [1] is on record?
Answer: 0.26 nM

Question: What about the “Metabolic Rate” value [2] of the same compound?
Answer: 46 pmol/min/mg

Question: Which EC50 [1] does the source give for `CC(OC(=O)CCC(C)(C)O)C1CCC2C(=CC=C3CC(O)C(C)C(O)C3)CCCC21C` [Compound of Example 50, (1R,2α,3R,20S)-2-methyl-19-nor-20-(4-hydroxy-4-methylpentanoyloxy)-9,10-secopregna-5Z,7E-diene-1,3-diol] here?
Answer: 0.043 nM

Question: And the “Metabolic Rate” value [2]?
Answer: 45 pmol/min/mg

Question: Which EC50 [1] does the source give for `C=C1C(=CC=C2CCCC3(C)C(C(C)OC(=O)CCC(C)(C)O)=CCC23)CC(O)CC1O` [Compound of Example 39, (1S,3R,20S)-20-(4-hydroxy-4-methylpentanoyloxy)-9,10-secopregna-5Z,7E,10(19),16-tetraene-1,3-diol] here?
Answer: 1.4 nM

Question: What about the “Metabolic Rate” value [2] of the same compound?
Answer: 26 pmol/min/mg

Question: With `C=C1C(=CC=C2CCCC3(C)C2CCC3C(C)OC(=O)CCC2(O)CCCC2)CC(O)CC1O` [Compound of Example 20, (1S,3R,20S)-20-[3-(1-hydroxycyclopentyl)propanoyloxy]-9,10-secopregna-5Z,7E,10(19)-triene-1,3-diol] as the compound, how does the EC50 [1] read?
Answer: 1.4 nM

Question: And the “Metabolic Rate” value [2]?
Answer: 39 pmol/min/mg

Question: Which EC50 [1] does the source give for `C=C1C(=CC=C2CCCC3(C)C2CCC3C(C)OC(=O)CCCC(C)(O)C(F)(F)F)CC(O)CC1O` [Compound of Example 37, (1S,3R,20S)-20-(6,6,6-trifluoro-5-hydroxy-5-methylhexanoyloxy)-9,10-secopregna-5Z,7E,10(19)-triene-1,3-diol] here?
Answer: 1.1 nM

Question: And the “Metabolic Rate” value [2]?
Answer: 36 pmol/min/mg

From patent publication US8796246B2, “9, 10-secopregnane derivative and pharmaceutical” (Nippon Shinyaku Co., Ltd., priority 2006, dated 2014)
